From PubChem BioAssay (NCI)
Values joined by “and” are separate entries in the source; they are usually repeats but may differ in a detail not shown here. Equal entries are not always repeated.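 These data come from cells grown in 96-well plates and exposed to compound for 48 hours at five concentrations. Abbreviation: GI50, concentration required for 50% inhibition of growth. At the TGI there is no net growth.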

What was measured:
Assay in all cases: NCI tumour cell line growth inhibition, 48 h
M19-MEL melanoma = test system: M19-MEL melanoma
DLD-1 colon = test system: DLD-1 colon
RXF-631 renal = test system: RXF-631 renal
DMS 114 small cell lung = test system: DMS 114 small cell lung
HOP-18 NSCLC = test system: HOP-18 NSCLC
DMS 273 small cell lung = test system: DMS 273 small cell lung
LXFL 529 NSCLC = test system: LXFL 529 NSCLC
XF 498 CNS = test system: XF 498 CNS
MDA-N = test system: MDA-N
P388/ADR leukemia = test system: P388/ADR leukemia
P388 leukemia = test system: P388 leukemia

Row | SMILES | TGI (M19-MEL melanoma) [µM] | TGI (DLD-1 colon) [µM] | TGI (RXF-631 renal) [µM] | TGI (DMS 114 small cell lung) [µM] | TGI (HOP-18 NSCLC) [µM] | TGI (DMS 273 small cell lung) [µM] | TGI (LXFL 529 NSCLC) [µM] | TGI (XF 498 CNS) | TGI (MDA-N) [µM] | further results
1 | CC(C)CC1CC2C(=O)N(c3ccccc3)C(=O)C2c2[nH]c3ccccc3c21 (stereo not given) | > 100 | > 100 | 51.8 | 52.7 | 31.4 | > 100 | > 100 | 48.6 µM |  | 
2 | CCOC(=O)C(c1ccsc1)P(=O)(OCC)OCC (stereo not given) | 25.7 | 44.9 |  | 29 | 43.8 | 26.8 | 26.7 | 38.4 µM |  | 
3 | COc1ccc(C)cc1-c1ccc(-c2cc(C)ccc2OC)o1 | > 100 | > 100 | > 100 | > 100 |  | > 100 | > 100 |  |  | 
4 | CC1(C)CCOC(Sc2ccccc2)C1 (stereo not given) | > 100 | > 100 |  | > 100 |  | > 100 | > 100 | > 100 µM |  | 
5 | CN(C)Cc1nsc(N(C)C)n1 |  |  |  |  |  |  |  |  | > 100 | 
6 | O=S(=O)(c1ccccc1)C1(C2(S(=O)(=O)c3ccccc3)CCN=N2)CCN=N1 (stereo not given) | > 100 | > 100 |  | > 100 |  | > 100 | > 100 | > 100 µM |  | 
7 | O=S(=O)([O-])c1ccc(C=Nc2ccccc2)c([O-])c1.O=S(=O)([O-])c1ccc(C=Nc2ccccc2)c([O-])c1.[Co+2] | > 100 | > 100 |  | > 100 | > 100 |  |  | > 100 µM |  | GI50 (M19-MEL melanoma): 78.7 µM; GI50 (DLD-1 colon): 5.18 µM; GI50 (DMS 114 small cell lung): > 100 µM; GI50 (HOP-18 NSCLC): 43.1 µM; GI50 (XF 498 CNS): 20.6 µM
8 | O=C(O)CC(CC(=O)O)n1cccc1 |  |  |  |  |  |  |  |  | > 100 | 
9 | CN(COC(=O)C(C)(C)C)c1nc(N(C)COC(=O)C(C)(C)C)nc(N(C)COC(=O)C(C)(C)C)n1 |  |  |  |  |  |  |  |  | 80.3 | 
10 | CCOC(=O)N1C/C(=C\c2ccc(N(C)C)cc2)C(=O)/C(=C/c2ccc(N(C)C)cc2)C1 | > 100 | > 100 | > 100 | > 100 | > 100 | > 100 | > 100 |  |  | 
11 | O=[N+]([O-])C(=C1c2ccccc2-c2ccccc21)[N+](=O)[O-] |  |  |  |  |  | > 10 | > 100 |  |  | 
12 | Nc1ncnc2c1ncn2C1(CO)OC(CO)C(O)C1O (stereo not given) |  | > 100 | > 100 | > 100 | > 100 | > 100 | > 100 | > 100 µM |  | 
13 | CN1C=C(C(N)=O)Cc2ccsc21 | > 100 | > 100 |  | > 100 | > 100 | > 100 | > 100 |  |  | 
14 | CC12CC(Br)(Br)C(=O)C3C1CCCC32 | 22.8 | 13.6 |  | 16.2 | 22.6 | 18.2 | 6.83 | 21 µM | 9.66 | 
15 | CCCCCCCCCCCCNC(=S)OCCCC | > 100 | > 100 | > 100 | > 100 | > 100 | > 100 | > 100 | > 100 µM |  | 
16 | CC(C)C[C@H](NC(=O)[C@@H](N)Cc1cccc2ccccc12)B(O)O |  |  |  |  |  |  |  |  |  | GI50 (MDA-N): < 0.01 µM
17 | O=c1oc2cc(O)ccc2cc1-c1nc2ccccc2o1 |  |  |  |  |  |  |  |  | > 100 | 
18 | Cc1ccc(C)c(NC(=O)C(=O)C(C2C(C)CC(=O)C2CC(=O)O)[N+](=O)[O-])c1 (stereo not given) | > 100 | > 100 | > 100 | > 100 |  |  | > 100 | > 100 µM |  | 
19 | O=C(OCc1ccccc1)N1N=NC2C3CC(OCc4ccccc4)(OCc4ccccc4)C(O3)C21 (stereo not given) | 77.6 | > 100 | > 100 | 53.1 | 94 | 94.9 | > 100 | 53.4 µM |  | 
20 | O=C1C2C3C=CC(C2C(=O)N1CN1CCOCC1)C1C2C(=O)N(CN4CCOCC4)C(=O)C2C31 (stereo not given) | 40.5 | > 100 | 74.9 | 34.1 | 60.2 | 33.3 | 36.1 |  | > 100 | 
21 | CCOC(=O)c1ccc(N[C@@H]2c3cc4c(cc3C(c3cc(OC)c(O)c(OC)c3)[C@H]3C(=O)OCC32)OCO4)cc1 (stereo not given in full) | 9.13 | 8.02 |  | 3.65 |  | 3.85 | 34.7 | 0.979 µM and 5.6 µM |  | GI50 (M19-MEL melanoma): 0.697 µM; GI50 (DLD-1 colon): 0.877 µM; TGI (P388/ADR leukemia): 0.0959 µM; GI50 (DMS 114 small cell lung): 0.326 µM; TGI (P388 leukemia): 0.0208 µM; GI50 (DMS 273 small cell lung): 0.134 µM and 0.156 µM; GI50 (XF 498 CNS): 0.418 µM
22 | CC1Nc2ccccc2NC1C=C(C#N)C#N (stereo not given) | 30.5 | 30.2 | 24.4 | 40.7 | 40.1 | 25.1 | 25.7 | 31.1 µM |  | 
23 | Cc1ncc2c(n1)CCC1=C2OS(=O)(=O)CC1N(C)C (stereo not given) |  |  |  |  |  |  |  |  | > 100 | 
